From patent EP2316926B1, “Enantioselective production of alpha-hydroxy carbonyl compounds” (priority 2009, dated 2011)

Legend:
Format in all cases: biochemical
Gox1615 [1] = target: T1, Gox1615 (Gluconobacter oxydans, UniProt Q5FQJ0); assay: Kinetic constants from purified enzyme by Lineweaver-Burk plots
T1 sequence (Q5FQJ0 1-332): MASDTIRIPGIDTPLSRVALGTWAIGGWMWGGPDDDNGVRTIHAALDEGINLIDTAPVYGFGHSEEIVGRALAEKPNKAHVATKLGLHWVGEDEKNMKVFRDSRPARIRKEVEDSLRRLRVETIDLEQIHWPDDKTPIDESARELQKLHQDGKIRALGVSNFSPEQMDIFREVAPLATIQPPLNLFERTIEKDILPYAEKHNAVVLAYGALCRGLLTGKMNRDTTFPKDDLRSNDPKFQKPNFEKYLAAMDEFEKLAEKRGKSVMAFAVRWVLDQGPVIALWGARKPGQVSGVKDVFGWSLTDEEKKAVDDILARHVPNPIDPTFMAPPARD
Description: (§1) Determination of pH and temperature optima and enzyme kinetics: The optimum pH for enzyme activities was determined by a modified method of Salusjärvi, T. et al., Appl. Microbiol. Biotechnol. 65:306-314 (2004) using the following buffer system (50 mM final concentration each): sodium acetate pH 4.5 - 6.5, potassium phosphate pH 6.5 - 8.0, Tris-HCl pH 8.0 - 10. Temperature optima for the biocatalysts were determined under standard reaction conditions at temperatures ranging from 20 - 80 °C. The Michaelis constant (Km) for the proteins was determined from purified enzyme by Lineweaver-Burk plots. Assays were performed at optimum pH for each enzyme and at 30 °C using the best substrate and a targeted substrate. The Km for each substrate was calculated using concentrations of 0.0025 to 10 mM, and the Km NAD(P)H and NAD(P) was calculated using concentrations of 0.01 to 0.5 mM
(§2) 2.9 Kinetic parameters of the keto carbonyl reductases: Kinetic constants were determined from purified enzyme by Lineweaver-Burk plots. The Km and Vmax values for the substrates were calculated using concentrations of 0.025 to 10 mM. The optimal pH values and temperatures for enzyme activities are also shown in Tab. 8. Table 8: Summary of kinetic parameters

Gox0644 [2] = target: T2, Gox0644 (Gluconobacter oxydans, UniProt Q5FT75); assay: as above
Description: as §1, §2

Gox1615 [3] = target: T1, Gox1615; assay: Coupled-enzyme biotransformation with cofactor regeneration, product determined by NMR (regio- and stereoselectivity)
Description: (§3) Measurement of enzyme activity: NADPH-dependent α-ketocarbonyl reductases were assayed by a routine method used for NAD(P)-linked enzymes by recording the rate of decrease of NADPH at 340 nm (ε = 6.22 mM^-1 x cm^-1)) with substrates at 30 °C. The reaction mixture (1 ml) for reduction of α-ketocarbonyl substrates contained 10 mM substrate, 40 mM potassium phosphate buffer pH 7.0, 0.025 mM NAD(P)H and the enzyme. Reactions were induced by addition of enzyme or substrate. One unit was defined as the amount of enzyme activity catalyzing the conversion of 1 µmol of pyridine nucleotide per min at 30 °C. NMR Analysis of Biotransformation Products: Biotransformations were extracted with equal volumes of CDCl3. and ^13C NMR spectra were recorded on a Bruker Avance 300 DPX spectrometer operating at 300 MHz for ^1H NMR and at 75 MHz for ^13C NMR, respectively. Spectra were processed using Bruker TonSpin 1.3 for Windows software and calibrated to the residual solvent peak of CDCl3 (δH = 7.26 / δC = 77.0).
(§4) Determination of the absolute configuration of the biotransformation product 2-hydroxy-pentan-3-one using chiral NMR shift solvents: Chiral NMR shift reagent (R,R)- and (S,S)-bis-α-methylbenzylamine-para-methyl (BMBA-p-Me) was prepared with small modifications according to the method reported by Kobayashi, Y et al., Tetrahedron Lett. 44: 7489-7491 (2003). In brief, the method of Marshall, J.A. and Mikowski, A. M., Org. Lett. 8:4375-4378 (2006) was used to synthesize 1,3-dibromo-2-methylpropane from 1,3-dihydroxy-2-methylpropane. Diisopropylethylamine (25.5 g), triphenylphosphine (20.1 g) and CBr4 (25.5 g) were sequentially added to a stirring solution of […] in 100 ml CH2Cl2 at 0 °C. The reaction was stirred for 3-4 h at 0 °C and concentrated under reduced pressure to give a green-brown oil. The oil was dissolved in diethyl ether and water (100 ml each) and the aqueous layer was extracted three times with diethyl ether. The organic extracts were combined and washed with water and brine, and dried over MgSO4. The reaction was concentrated under reduced pressure and applied to flash chromatography on silica 60 (230-400 mesh, 100% cyclohexane). Fractions containing the 1,3-dibromo-2-methylpropane product were combined (as judged by Si-TLC [100% cyclohexene]) and concentrated under reduced pressure resulting in a brown-yellow oil. The dibromopropane oil was used for the synthesis of (R,R)- and (S,S)-BMBA-p-Me as described by (Kobayashi, Y. et al., Org. Lett. 4(3):411-414 (2002). The crude oil was distilled by Kugelrohr at 240 °C to give crude BMPA-p-Me (yellow oil). BMBA-p-Me was purified by HPLC using a C18 column (Waters Xterra, 250 x 4.6 mm) at a flow rate of 0.8 ml min^-1 and a 40 min linear gradient of 50-100 % MeOH at ambient temperature. Fractions were concentrated under reduced pressure and BMBA-p-Me was identified by ^1H-NMR (colorless hygroscopic oil).
(§5) Approximately 7.5 mg of the extracted product 2-hydroxy-pentan-3-one was added to 15 mg (R,R)- or (S,S)-BMBA-p-Me (dissolved in 200-300 µl CDCl3) and analyzed by ^13C NMR with the readout adjusted to 0.001 ppm/point (sw = 239 ppm, td = 512k) (Fiorentino, A. et al., Tetrahedron., 62:8952-8958 (2006)). The absolute configuration was determined based on the sign of ΔδRR-SS (δ(R,R)-BMBA-p-Me - δ(S,S)-BMBA-p-Me) for the α-carbons adjacent to the hydroxymethine unit as formulated in the following model shown in Scheme 3 (valid for saturated secondary alcohols of acyclic and cyclic compounds): [drawing 7]
(§6) Cofactor regeneration: A prerequisite for the production of α-hydroxycarbonyl compounds is the regeneration of the expensive coenzymes and the stability of the protein catalysts. By coupling two coenzyme-dependent enzyme reactions, NADPH can be continuously regenerated. […]

Gox0644 [4] = target: T2, Gox0644; assay: as above
Description: as §3, §4, §5, §6

[5] = NMR with chiral solvent BMBA-p-Me

## CCC(=O)C(C)=O [2,3-pentanedione]
Gox1615 [1]
  Vmax: 7.0 U/mg protein
Gox0644 [2]
  Vmax: 70 U/mg protein
Gox1615 [3]; [5]
  Product (stereoselective reduction): 2S-hydroxy-pentan-3-one
Gox1615 [3]; determined by NMR analysis
  Product (regioselective reduction): 2-hydroxy-pentan-3-one
Gox0644 [4]; [5]
  Product (stereoselective reduction): 2R-hydroxy-pentan-3-one
Gox0644 [4]; determined by NMR analysis
  Product (regioselective reduction): 2-hydroxy-pentan-3-one
